The results in this text go back to US12240857B2 (priority 2017, dated 2025).

The test system of data set [1] is EBOV mucin-domain-deleted glycoprotein pseudotyped VSV. Kind of data set: microbe, parasite or virus in culture. The format is cell-based, Zaire ebolavirus. The conditions noted are these: Zaire ebolavirus, Vero, read-out: EC50 EBOV.
Data set [2] concerns BDBV mucin-domain-deleted glycoprotein pseudotyped VSV. Nature of the data set: microbe, parasite or virus in culture. The format is cell-based, Bundibugyo ebolavirus. The conditions noted are these: Vesicular stomatitis virus, Vero, read-out: EC50 BDBV.
A short description of another data set: in vitro. The conditions noted are these: African green monkey, CC50.

Like-named read-outs stand apart in the source and are kept apart here.

For the molecule `CC1CCN(C[C@H](O)COc2ccc(C34CC5CC(CC(c6ccccc6)(C5)C3)C4)cc2)CC1` [Example C18, (2S)-1-(4-methylpiperidin-1-yl)-3-[4-(3-phenyladamantan-1-yl)phenoxy]propan-2-ol], the values for the EC50 in data set [1] and in data set [2] were 0.08 µM and 0.26 µM, respectively. This molecule also registered a CC50 in the data set “in vitro” of 2.7 µM.
Turning to `CCC12CC3CC(C1)CC(c1ccc(OC[C@@H](O)CN4CCC(C)CC4)cc1)(C3)C2` [Example C19, (S)-1-(4-(−3-ethyladamantan-1-yl)phenoxy)-3-(4-methylpiperidin-1-yl)propan-2-ol], the EC50 turned out to be 0.11 µM in data set [1] and 0.2 µM in data set [2]. In the data set “in vitro”, this molecule registered a CC50 of more than 100 µM.
Consider `Cc1ccc(C23CC4CC(CC(CN5CCCCC5)(C4)C2)C3)cc1` [Example D1], for which the figures for the half-maximal effective concentration (EC50) in data set [1] (24 h) and in data set [2] (24 h) were 1.3 µM and 0.61 µM, respectively. Moreover, the CC50 in “in vitro” was more than 10 µM.
The like results for `COc1ccc(CNCCC23CC4CC(CC(C4)C2)C3)cc1` [Example D4, [2-(adamantan-1-yl)ethyl][(4-methoxyphenyl)methyl]amine] were, in that order, 2.19 µM, 2.72 µM and more than 10 µM.
`CCOCCN1CCN(CC23CC4CC(CC(C4)C2)C3)CC1` [Example D5, 1-(adamantan-1-ylmethyl)-4-(2-ethoxyethyl)piperazine]: the EC50 in data set [1] (24 h) stood at 4.6 µM; in data set [2] (24 h) it was 1.8 µM. Further, in “in vitro”, the CC50 is more than 10 µM.
Consider `CC1CCN(CC(O)COCCC23CC4CC(CC(C4)C2)C3)CC1` (stereo not drawn) [Example D10, 1-[2-(adamantan-1-yl)ethoxy]-3-(4-methylpiperidin-1-yl) propan-2-ol], for which the half-maximal effective concentration (EC50) in data set [1] (24 h) amounted to 0.32 µM; in data set [2] (24 h), 0.14 µM. The molecule also returned a CC50 in “in vitro” of 15.5 µM.
The like results for `CC1CCCCN1CC(O)COCCC12CC3CC(CC(C3)C1)C2` (stereo not drawn) [Example D11, 1-[2-(adamantan-1-yl)ethoxy]-3-(2-methylpiperidin-1-yl)propan-2-ol] were, in that order, 0.44 µM, 0.19 µM and 7.5 µM.
On to `CCN(CC(O)COCCC12CC3CC(CC(C3)C1)C2)C1CCCCC1` (stereo not drawn) [Example D12, N-{3-[2-(adamantan-1-yl)ethoxy]-2-hydroxypropyl}-N-ethylcyclo hexanamine], for which the concentration for a half-maximal effect (EC50) in data set [1] (24 h) worked out at 0.61 µM; in data set [2] (24 h), 0.49 µM. Further, the CC50 in the data set “in vitro” was more than 3 µM.
In the case of `CC(C)(C)NCC(O)COCCC12CC3CC(CC(C3)C1)C2` (stereo not drawn) [Example D13, {3-[2-(adamantan-1-yl)ethoxy]-2-hydroxypropyl}(tert-butyl)amine], the EC50 was found to be 0.63 µM in data set [1] (24 h) and 0.67 µM in data set [2] (24 h). Also, the CC50 in the data set “in vitro” is more than 10 µM.
For `OC(COCCC12CC3CC(CC(C3)C1)C2)CN1CCOCC1` (stereo not drawn) [Example D16, 1-[2-(adamantan-1-yl)ethoxy]-3-(morpholin-4-yl)propan-2-ol], the EC50 in data set [1] (24 h) came to 3.8 µM; in data set [2] (24 h) it was 3.2 µM. The molecule further showed a CC50 in “in vitro” of more than 10 µM.
On to `CC1CCN(C[C@H](O)COc2ccc(C34CC5CC(CC(C5)C3)C4)cc2)CC1` [Example D22, (2S)-1[4-(adamantan-1-yl)phenoxy]-3-(4-methylpiperidin-1-yl)propan-2-ol], for which the EC50 in data set [1] (24 h) stood at 0.052 µM; in data set [2] (24 h), 0.085 µM. This molecule also yielded a CC50 in “in vitro” of 8.5 µM.
Regarding `CC1CCN(C[C@@H](O)COc2ccc(C34CC5CC(CC(C5)C3)C4)cc2)CC1` [Example D23, (2R)-1-[4-(adamantan-1-yl)phenoxy]-3-(4-methylpiperidin-1-yl)propan-2-ol], the concentration for a half-maximal effect (EC50) in data set [1] (24 h) was determined as 0.06 µM; in data set [2] (24 h) it was 0.077 µM. For the same molecule, the CC50 in “in vitro” stood at 3.9 µM.
Taken in the same sequence, the figures for `CCN1CCN(CC(O)COc2ccc(C34CC5CC(CC(C5)C3)C4)cc2)CC1` (stereo not drawn) [Example D25, 1-[4-(adamantan-1-yl)phenoxy]-3-(4-ethylpiperazin-1-yl)propan-2-ol] were 0.09 µM, 0.24 µM and 3.1 µM.
Taken in the same sequence, the figures for `CN1CCN(C[C@H](O)COc2ccc(C34CC5CC(CC(C5)C3)C4)cc2)CC1` [Example D27] were 0.13 µM, 0.19 µM and 3.5 µM.
Consider `CN1CCN(CC(O)COc2ccc(C34CC5CC(CC(C5)C3)C4)cc2)CC1` (stereo not drawn) [Example D28, 1-[4-(adamantan-1-yl)phenoxy]-3-(4-methylpiperazin-1-yl)propan-2-ol], for which the EC50 turned out to be 0.15 µM in data set [1] (24 h) and 0.21 µM in data set [2] (24 h). This molecule also gave a CC50 in the data set “in vitro” of 4.2 µM.
The like results for `NCCOc1ccc(C23CC4CC(CC(C4)C2)C3)cc1` [Example D34, 1-[4-(2-aminoethoxy)phenyl] adamantane] were, in that order, 0.43 µM, 1.16 µM and 3.7 µM.
In the case of `Nc1ccc(C23CC4CC(CC(C4)C2)C3)cc1` [Example D36, 4-(adamantan-1-yl)aniline], the EC50 in data set [1] (24 h) worked out at 4.2 µM; in data set [2] (24 h), 6.2 µM. Also, the CC50 in the data set “in vitro” was more than 10 µM.
As for `CC12CC3CC(C)(C1)CC(c1ccc(OC[C@@H](O)CN4CCCCC4)cc1)(C3)C2` [Example D39, (2S)-1-[4-(3,5-dimethyladamantan-1-yl)phenoxy]-3-(piperidin-1-yl) propan-2-ol], the concentration for a half-maximal effect (EC50) in data set [1] (24 h) turned out to be 0.12 µM; in data set [2] (24 h), 0.25 µM. In the data set “in vitro”, this molecule returned a CC50 of 3.2 µM.
Taken in the same sequence, the figures for `CC1CCN(C[C@H](O)COc2ccc(C34CC5CC(C)(CC(C)(C5)C3)C4)cc2)CC1` [Example D40, (2S)-1-[4-(3,5-dimethyladamantan-1-yl)phenoxy]-3-(4-methylpiperidin-1-yl)propan-2-ol] were 0.19 µM, 0.46 µM and 2.5 µM.
The like results for `O=C(NCCC12CC3CC(CC(C3)C1)C2)c1ccc(CN2CCOCC2)cc1` [Example D41, N-[2-(adamantan-1-yl)ethyl]-4-(morpholin-4-ylmethyl)benzamide] were, in that order, 2.3 µM, 9.7 µM and more than 3 µM.
With `CC(NC(=O)Cn1ccc(C(F)(F)F)n1)C12CC3CC(CC(C3)C1)C2` (stereo not drawn) [Example D44, N[1-(adamantan-1-yl)ethyl]-2-[3-(trifluoromethyl)-1H-pyrazol-1-yl] acetamide], the concentration giving a half-maximal response (EC50) in data set [1] (24 h) is 5.8 µM; in data set [2] (24 h), 2.7 µM. Also, in “in vitro”, the CC50 was more than 10 µM.
For `CC(NC(=O)NCC(C)(C)N1CCOCC1)C12CC3CC(CC(C3)C1)C2` (stereo not drawn) [Example D45, 1-[1-(adamantan-1-yl)ethyl]-3-[2-methyl-2-(morpholin-4-yl)propyl]urea], the half-maximal effective concentration (EC50) was determined as 6.5 µM in data set [1] (24 h) and 4.6 µM in data set [2] (24 h). The CC50 in the data set “in vitro” is more than 10 µM.
The like results for `CN(C)C1CCCN(C(=O)NCC23CC4CC(CC(C4)C2)C3)C1` (stereo not drawn) [Example D46, N-(adamantan-1-ylmethyl)-3-(dimethylamino)piperidine-1-carboxamide] were, in that order, 6.7 µM, 4.3 µM and more than 10 µM.
Turning to `CC(NC(=O)Cn1nnc(-c2ccco2)n1)C12CC3CC(CC(C3)C1)C2` (stereo not drawn) [Example D47, N-[1-(adamantan-1-yl)ethyl]-2-[5-(furan-2-yl)-2H-1,2,3,4-tetrazol-2-yl]acetamide], the figures for the EC50 in data set [1] (24 h) and in data set [2] (24 h) were 9.3 µM and 5.4 µM, respectively. The CC50 in “in vitro” was more than 10 µM.
For `O=C(NC1CCNCC1)NC12CC3CC(C1)CC(c1ccccc1)(C3)C2` [Example E1, 3-(3-phenyladamantan-1-yl)-1-(piperidin-4-yl)urea], the concentration for a half-maximal effect (EC50) in data set [1] was more than 1 µM; in data set [2], 0.77 µM. The same molecule registered a CC50 in “in vitro” of 18.3 µM.
